Measurements taken from patent US7202239B2, “Cyclohexylphenyl carboxamides tocolytic oxytocin receptor antagonists” (Wyeth, priority 2001, dated 2007).

Target: human V2 vasopressin receptor subtype (Homo sapiens, UniProt P30518)
Assay: Vasopressin binding in CHO cell membranes expressing human vasopressin V2 subtype receptors
Conditions: 100 nM, [3H]arginine vasopressin
From the text: Vasopressin Binding in Chinese Hamster Ovary Cell Membranes Expressing Human Vasopressin V2 Subtype Receptors
Chinese Hamster Ovary (CHO) cells stably transfected with the human V2 subtype receptors were obtained from M. Thibonnier, Case Western Reserve University School of Medicine, Cleveland, Ohio.
A. Passaging and Amplification of Cells:
CHO cells transfected with the human vasopressin V2 subtype receptors obtained from M. Thibonnier (pZeoSV vector) are allowed to grow to confluency (approx. >90%) in T-150 flasks under sterile conditions, in a cell culture medium of F-12 Nutrient Mixture (HAM) with L-glutamine (Gibco Cat. # 11765-054) containing 15 mM HEPES (Gibco Cat. # 15630-080), 1% antibiotic/antimycotic (add 5 mL 100×, Gibco Cat. # 15240-062 per 500 mL F-12), 250 μg/mL Zeocin (add 1.25 mL of 100 mg/mL Invitrogen R-250-01 per 500 mL F-12) and 10% Fetal Bovine Serum (Qualified, heat inactivated, Gibco Cat. # 16140-063). The medium is removed by aspiration and the cells washed with 10 mL of Hank's Balanced Salt solution (Gibco Cat. # 14175-095). The salt solution is removed by aspiration and the cells trypsinized with 5 mL of trypsin-EDTA (0.05% trypsin, 0.53 mM EDTA-4Na, Gibco Cat. # 25300-070) for 1 min. The trypsin is removed by aspiration and the cells dislodged by tapping. Cell Culture medium (e.g. 30 mL for 1:30 split) is immediately added and mixed well to inactivate trypsin. 1 mL of detached cells is added to new culture flasks containing fresh Cell Culture medium (e.g. into 25 mL per T-150 flask), and mixed gently. The cells are incubated at 37° C. in 5% CO2. The medium is changed at 3 to 4 day interval (or as appropriate). The cells grow to confluency (approx. >75%–95%) within 7–8 days. All steps are done under sterile conditions. B. Membrane Preparation: The cells are washed twice gently with Hank's Balanced Salt solution (e.g. use 10 mL per T-150 flask). The excess solution is removed and the cells bathed for 15–30 min. in an enzyme-free Cell Dissociation Buffer (e.g. use 8 mL Hank's Based, Gibco Cat. # 13150-016 per T-150 flask) until cells are loosened. The contents are transferred to centrifuge tubes (50 mL) kept in an ice bath. All subsequent steps are done at 4° C. The tubes are centrifuged at 300× g for 15 min (1380 rpm on SORVAL, Model RT6000D, using the rotor for 50 mL tubes). The supernatant is discarded and the cells suspended in homogeneizing buffer(10 mM Tris-HCl containing 0.25 M sucrose and 1 mM EDTA, pH 7.4) ensuring that the volume of the buffer is about ten times the volume of the cell pellet. The cells are pooled into a centrifuge tube (50 mL) and homogenized with a Polytron at setting 6 for 10 sec. The homogenate is transferred into a Potter-Elvjehm homogeneizer and homogenized with 3 strokes. The homogenate is centrifuged at 1500×g for 60 min at 4° C. (3100 rpm using SORVAL, model RT6000D, using the rotor for 50 mL tubes). The pellet is discarded. The supernatant is centrifuged at 100,000×g for 60 min. at 4° C. (Beckman L8-80M ultracentrifuge; spin at 37,500 rpm with rotor type 70 Ti for 50 mL tubes; 38,000 rpm with type 80Ti for 15 mL tubes; or 35,800 rpm with rotor type 45Ti). The supernantant is discarded and the pellet suspended in 3 to 4 mL of Tris buffer (50 mM TRIS-HCl, pH 7.4). The protein content is estimated by the Bradford or Lowry method. The volume of the membrane suspension is adjusted with the membrane buffer (50 mM Tris-HCl containing 0.1% BSA and 0.1 mM PMSF) to give 3.0 mg/mL (or as appropriate) of protein. The membranes are aliquoted and stored at −70° C. C. Radioligand Binding Assay: In wells of a 96-well format microtiter plate, is added 90, 110 or 130 μL (to make up a final volume of 200 μL) of assay buffer containing 50 mM of Tris-HCl (pH 7.4), […], 1 mg % aprotinin, 1 mg % leupeptin, 2 mg % 1,10-phenanthroline, 10 mg % trypsin inhibitor, and 0.1 mM PMSF. The inhibitors are added on the day of the experiment. […]

Sequence of human V2 vasopressin receptor subtype (P30518 whole entry): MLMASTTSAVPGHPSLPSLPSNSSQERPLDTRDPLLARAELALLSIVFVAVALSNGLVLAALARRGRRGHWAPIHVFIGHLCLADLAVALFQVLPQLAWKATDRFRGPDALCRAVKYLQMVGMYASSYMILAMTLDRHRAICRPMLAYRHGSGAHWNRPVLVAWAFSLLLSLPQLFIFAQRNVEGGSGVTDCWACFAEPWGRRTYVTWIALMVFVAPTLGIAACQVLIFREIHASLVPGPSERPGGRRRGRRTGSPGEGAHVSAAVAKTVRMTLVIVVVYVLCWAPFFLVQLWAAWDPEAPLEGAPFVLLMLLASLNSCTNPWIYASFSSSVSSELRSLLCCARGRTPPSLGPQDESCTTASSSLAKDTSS

Row | V2 % inhibition at 100 nM [%] | inhibition at 0.1 µM [%] | SMILES
1 |  | 7 | O=C(NCc1cccnc1)c1ccc2n1Cc1ccccc1N(C(=O)c1ccc(C3CCCCC3)cc1)C2 [Example 51, 10-(4-Cyclohexyl-benzoyl)-N-(3-pyridinylmethyl)-10,11-dihydro-5H-pyrrolo [2,1-c][1,4]benzodiazepine-3-carboxamide]
2 |  | 6 | CN(CCc1ccncc1)C(=O)c1ccc2n1Cc1ccccc1N(C(=O)c1ccc(C3CCCCC3)cc1)C2 [Example 55, 10-(4-Cyclohexyl-benzoyl)-N-methyl-N-[2(4-pyridinyl)ethyl]-10,11-dihydro-5H-pyrrolo[2,1-c][1,4]benzodiazepine-3-carboxamide]
3 |  | 4 | CN(Cc1cccnc1)C(=O)c1ccc2n1Cc1ccccc1N(C(=O)c1ccc(C3CCCCC3)cc1)C2 [Example 57, 10-(4-Cyclohexyl-benzoyl)-N-methyl-N-(3-pyridinylmethyl)-10,11-dihydro-5H-pyrrolo[2,1-c][1,4]benzodiazepine-3-carboxamide]

The next lines start with the molecule.

Row | SMILES | V2 % inhibition at 100 nM [%] | inhibition at 0.1 µM [%]
4 | O=C(c1ccc2n1Cc1ccccc1N(C(=O)c1ccc(C3CCCCC3)cc1)C2)N1CCN(CCO)CC1 [Example 48, [10-(4-Cyclohexyl-benzoyl)-10,11-dihydro-5H-pyrrolo[2,1-c][1,4]benzodiazepin-3-y][4-(2-hydroxyethyl)-1-piperazinyl]methanone] | 14 | 
5 | O=C(NCCc1ccccn1)c1ccc2n1Cc1ccccc1N(C(=O)c1ccc(C3CCCCC3)cc1)C2 [Example 49, 10-(4-Cyclohexyl-benzoyl)-N-[2-(2-pyridinyl)ethyl]-10,11-dihydro-5H-pyrrolo[2,1-c][1,4]benzodiazepine-3-carboxamide] |  | 10
6 | O=C(NCc1ccccn1)c1ccc2n1Cc1ccccc1N(C(=O)c1ccc(C3CCCCC3)cc1)C2 [Example 50, 10-(4-Cyclohexyl-benzoyl)-N-(2-pyridinylmethyl)-10,11-dihydro-5H-pyrrolo[2,1-c][1,4]benzodiazepine-3-carboxamide] |  | 15
7 | CN(CCc1ccccn1)C(=O)c1ccc2n1Cc1ccccc1N(C(=O)c1ccc(C3CCCCC3)cc1)C2 [Example 52, 10-(4-Cyclohexyl-benzoyl)-N-methyl-N-[2-(2-pyridinyl)-ethyl]-10,11-dihydro-5H-pyrrolo[2,1-c][1,4]benzodiazepine-3-carboxamide] |  | 8
8 | O=C(NCc1ccncc1)c1ccc2n1Cc1ccccc1N(C(=O)c1ccc(C3CCCCC3)cc1)C2 [Example 53, 10-(4-Cyclohexyl-benzoyl)-N-(4-pyridinylmethyl)-10,11-dihydro-5H-pyrrolo[2,1-c][1,4]benzodiazepine-3-carboxamide] |  | 2
9 | O=C(c1ccc2n1Cc1ccccc1N(C(=O)c1ccc(C3CCCCC3)cc1)C2)N1CCN(c2ccncc2)CC1 [Example 54, [10-(4-Cyclohexyl-benzoyl)-10,11-dihydro-5H-pyrrolo[2,1-c][1,4]benzpdiazepin-3-yl][4-(4-pyridinyl)-1-piperazinyl]-methanone] | 6 | 
10 | O=C(c1ccc(C2CCCCC2)cc1)N1Cc2ccc(C(=O)n3ccnc3)n2Cc2ccccc21 [Example 56, 1H-Imidazol-1-yl-[10-(4-cyclohexyl-benzoyl)-10,11-dihydro-5H-pyrrolo[2,1-c][1,4]benzodiazepin-3-yl]-methanone] |  | -2
